Assays:
RAW 264.7 cells = experiment: LPS-induced TNF release by RAW 264.7 cells; assay type: cell-based, murine; conditions: for TNF-accumulated (% of control): peptide 10^-12 M, LPS 10 ng/ml, TNF by ELISA at 6 h, LPS alone set at 100%, mean ± SEM
Protocol: Murine macrophage-like RAW 264.7 cells were obtained from American Type Culture Collection, and were grown in Dulbecco’s Modified Eagle’s Medium (DMEM, Life Technologies) containing 10% (vol/vol) heat-inactivated fetal bovine serum (FBS, Hyclone Lab. Inc.), penicillin 100 U/ml, and streptomycin 100 μg/ml (BioWhittaker Inc.). Cells were suspended in medium and incubated in 24-well or 48-well tissue-culture plates overnight in a humidified incubator (37 °C, 5% CO2). Growth medium was removed and replaced by Opti-MEM I serum-free medium (Life Technologies) overnight. In the experiments, cell monolayers were stimulated with HMGB1 or LPS, in the absence or presence of MECO-1 or alpha-MSH; cell-free supernatants were assayed for TNF by ELISA or HMGB1 by western blotting.
Concentrations of TNF and IL-6 were each determined using a commercially available enzyme-linked immunosorbent assay (ELISA) kit (R&D System Inc.) as previously described.[34] The levels of TNF or IL-6 were calculated with reference to standard curves.
Fig. 2 Cytokine-induced TNF release inhibited by MECO-1. a Lipopolysaccharide (LPS), derived from the cell wall of Gram-negative bacteria, is a TLR4 and TLR2 agonist. RAW 264.7 cells were treated with MECO-1 and LPS simultaneously and incubated overnight. Supernatants were tested for TNF with ELISA. b Poly I:C, synthetic double stranded RNA, is recognized by TLR3. RAW 264.7 cells were pre-treated with MECO-1 and then stimulated with Poly I:C. Supernatants were tested in ELISA by TNF. c Peptidoglycan (PGN), another TLR2 agonist, is ubiquitous in the cell wall of bacteria. RAW 264.7 cells were pre-treated with MECO-1 and then stimulated with PGN; after overnight stimulation, supernatants were harvested and tested for TNF ELISA. d HMGB-1. Each vertical bar is the mean of three experimental points, using HMGB-1 to induce TNF release. Three sets of three experiments were used for the measurement of inhibition
Fig. 5 a Bioactive analogues of MECO-1. Murine macrophage-like RAW 264.7 cells were incubated with lipopolysaccharide (LPS, 4 ng/ml) in the absence or presence of MECO-1 or BACTN or BACFR, synthetic peptides based on the C-termini of EF-G of Bacteroides thetaiotamicron and Bacteroides fragilis. EFG-2 refers to human mitochondrial EFG-2 (mtEFG2). For Bacteroides thetaiotamicron, we used a 38-mer consisting of residues 681–703 shown in Fig. 4c followed by 704–718 QDKLIKDFEAKQTEE. For Bacteroides fragilis, we used a 33-mer consisting of residues, 681–703 shown in Fig. 4c followed by 704–713 = QDKLIKDFES. At 6 h after stimulation, aliquots of cell-free medium were examined. In other experiments, the synthetic peptide based on human mitochondrial EF-G1 (mtEFG1) gave results indistinguishable from EF-G2 (data not shown). The precise structure of the synthetic peptides is indicated in the text (see section “Results” and Table 1). Shown is a representative experiment.

NF-kappa B = experiment: NF-kappa-B activity (electrophoretic mobility shift assay) in LPS-treated RAW 264.7 cells; assay type: cell-based, murine; conditions: LPS 100 ng/ml; peptide 10^-8 M and 10^-6 M; 2 hours; EMSA; two separate experiments
Protocol: Nuclear extracts were prepared from 1 × 10^6 treated cells using the NE-PER nuclear extraction reagents (Pierce). DNA was biotin labeled using the biotin 3ʹ-end-labeling kit (Pierce) in a 50-µl reaction buffer and 5 pmol of double-stranded NF-kappa-B oligonucleotide (5ʹ-[…]-3ʹ and 3ʹ-[…]-5ʹ, Promega). Electrophoretic mobility shift assays for NF-κB was performed using the Lightshift Chemiluminescent Electrophoretic Mobility Shift Assay kit (Pierce) following the manufacturer’s protocol. Densitometric values for the active transcription factors were obtained using GS-800 Calibrated Densitometer Software (Biorad).[36]
RAW 264.7 cells ([…]) were incubated with LPS (100 ng/ml) with or without MECO-1 or alpha-MSH at 10^-8 M and 10^-6 M for 2 hours. Nuclear extracts were mixed with biotin-labeled oligonucleotides containing binding sites for NF-kappa B and then run on a gel, 4-20% Ready gel TBE, in an electrophoretic mobility shift assay. Data represent mean +/- SEM of two separate experiments.

Balb/C mice = experiment: Lethal LPS endotoxin sepsis in mice, survival; assay type: in vivo; conditions: two experiments pooled; peptide i.p. twice daily for 3 days; saline 0 of 19; alpha-MSH 5 of 20, MECO-1 15 of 30
Text: Kaplan–Meier analysis was used to determine statistical significance of the differences in survival of mice. p ≦ 0.05 was considered significant. Values in the figures were expressed as mean(±)S.E.M. of two or three independent experiments, where each experimental point was derived from duplicates or triplicates. Student’s two-tailed t-test was used to compare the means between groups. p-value of 0.05 or less was considered statistically significant. The design (including sample size) of experiments in Figs. 2–7, and Table 1 followed closely the design of previous experiments by us and others. The results of prior experiments in our laboratory (both in vitro experiments and animal experiments) were used to decide sample size for each of the experiments shown.[37]–[41]
Fig. 6 MECO-1 rescues mice from lethal sepsis. a Endotoxin. Balb/C mice (males) were injected once intraperitoneally with LPS at a dose estimated to be an LD75. Immediately thereafter, the first doses of MECO-1 at 0.5 mg/kg (low dose), MECO-1 at 5 mg/kg (high dose), alpha-MSH at 5 mg/kg (high dose) or saline alone were administered intraperitoneally. Peptide or saline were given twice daily for 3 days for a total of six doses. Ten mice were in each group. Survival was monitored daily for 2 weeks. […] Animals were monitored for survival for 14 days. […]

alpha-melanocyte-stimulating hormone [alpha-MSH]
peptide concentration at which attenuation of LPS-induced TNF-alpha release was observed (RAW 264.7 cells; RAW 264.7 cells, overnight incubation, ELISA): 10^−15 M
TNF-accumulated (% of control) (RAW 264.7 cells; agouti 0 pM, RAW 264.7 cells): 67.05 ± 10.2 % of control
TNF-accumulated (% of control) (RAW 264.7 cells; agouti 10 pM, RAW 264.7 cells): 132.6 ± 4.9 % of control
TNF-accumulated (% of control) (RAW 264.7 cells; agouti 10^3 pM, RAW 264.7 cells): 138.6 ± 12.4 % of control
TNF-accumulated (% of control) (RAW 264.7 cells; agouti 10^5 pM, RAW 264.7 cells): 122.2 ± 4.3 % of control
inhibition of LPS-induced TNF-alpha release (valley) (RAW 264.7 cells; at 10^−11–10^−10 M peptide, attenuation lost above 10^−10 M): ~90%
rise in NF-kB activity (NF-kappa B): active in attenuating
mice rescued from lethal dose of LPS endotoxin (Balb/C mice): 25%
